In one series the test system is L5178Y lymphoma. The series is described as follows: Inhibiting activity on cell proliferation, MTT analysis (L5178Y). In kind it is cell-based, murine. The settings on record: L5178Y lymphoma cells, 3 days with drug. The procedure:
(§1) In order to compare the safety index (SI) of CPAE (calf pulmonary artery endothelial cell) with that of HUVEC (human umbilical vein endothelial cell), L5178Y lymphoma that was isolated from murine thymus was used. The safety index was defined as IC50 ratio of L5178Y against CPAE (IC50L5178Y/IC50CPAE). All cell lines, which had been kept in liquid nitrogen tank, were used after being thawed and subcultured 2˜3 times in T-flask. CPAE, HUVEC and L5178Y were cultured in MEM culture medium (20% FBS, 50˜100 μg/ml ECGS, 0.15% baking soda, 0.05 mg/ml gentamicin), M199 culture medium (20% FBS, 0.22% baking soda, 100 μg/ml heparin, 3 ng/ml bFGF, 0.05 mg/ml gentamicin) and RPMI 1640 culture medium (10% FBS, 0.2% baking soda, 0.05 mg/ml gentamicin), respectively, under the condition of 37° C. and 5% CO2.
(§2) The drug was prepared by being gradationally diluted to two or ten times by using PBS, 20 μl of the solution was added to each well of 96 well plate in triplicate. The cell, which is being incubated, was treated with trypsin to give cell suspension. The number of cell thereafter was counted. And 180 μl of the solution was inoculated to each well and cultured.
The tumor cell was cultured with drugs for 3 days and then 50 μl of MTT (3-(4,5-dimethylthiazole-2-yl)-2,5-diphenyl tetrazolium bromide, Sigma Chemical Co.) solution (2.5 mg/ml in PBS) was added thereto. And it was further cultured for 4 hours at 37° C. Culture medium was removed carefully. And after dissolving formazan crystal by adding 150 μl of DMSO, the absorbance at 570 nm was determined.

Series [1] relates to CPAE (calf pulmonary artery endothelial cell). The series is described as follows: Inhibiting activity on cell proliferation, SRB analysis (CPAE). In kind it is cell-based. The settings on record: for IC50: CPAE cells, 3 days with drug, SRB, read-out: IC50 (nM) CAPE; for Selectivity Index (L5178Y/CAPE): IC50 L5178Y / IC50 CPAE. The method, then:
as §1, §2
The cell was cultured with drugs for 3 days and then 50 μl of 50% TCA was added thereto (final concentration 10%). Subsequently the cell was fixed by being left alone at 4° C. for 1 hour. The well was washed 4 times by distilled water and then dried. After that 100 μl of SRB (Sulforhodamine B, Sigma Chemical Co.) solution (0.4% w/v in 1% acetic acid) was added thereto and then it was left alone at ordinary temperature for 30 minutes. Thereafter the well was washed 4 times by 1% acetic acid and dried. And then after adding 200 μl of 10 mM tris buffer, the absorbance at 570 nm was measured by automatic microplate reader (Model: Elx 808, Bio-Tek Instrument, INC). The viability was calculated from the ratio of the absorbance of the control to which drugs were not added and the well to which drugs were added.

The nature of series [2]: Chemical stability test (HPLC purity). Particulars: for change of purity (in words) / chemical stability compared to known compounds / 1 month Other peaks (%) / 1 month Parent peak (%): 1 month at 40±2° C.; for change of purity (in words) / chemical stability compared to known compounds / 1 month Other peaks (%) / 1 month Parent peak (%) / change of purity (%): 75±5% relative humidity; for 1 month Other peaks (%) / 1 month Parent peak (%) / Initial Other peaks (%) / Initial Parent peak (%): HPLC; for 1 month Other peaks (%) / 1 month Parent peak (%): air-tight vessel; for change of purity (%): initial vs 1 month at 40±2° C.
Description: Each compound of the present invention was kept in an air-tight vessel for 1 month at 40±2° C. and 75±5% of relative humidity. Thereafter the HPLC purity test was executed.
25 mL of the solution was precisely taken, and poured into 100 mL volumetric flask. Acetonitrile/20 mM ammonium acetate aqueous solution (50:50) was added thereto to be the total volume of 100 ml. The solution was filtrated, and the filtrate was used as a test liquid.
(2) Operational Condition of Instrument. • Column: Kromasil®C18 (UG 100 Å, 5 μm, 4.6 mm Φ×250 mm) • Column temperature: 30° C. • Mobil phase: 20 mM ammonium acetate (pH 4.2) buffer:acetonitrile (55:45) • Injection volume: 20 μL • Flow rate: 1.2 mL/min • Detector: UV light-absorption Spectrophotometer (detection wavelength: 306 nm)

A short description of a further series: Solubility test. Particulars: ordinary temperature. Type of series: physicochemical. The method, then:
To a constant amount (400 mg) of each compounds of present invention, a constant amount of demineralized water, methanol and ethanol were added separately, and the solution was stirred at ordinary temperature.

Where [3] appears, read: Bos taurus, Endothelial cell, 72 h.

SMILES strings stand for the structures. Like-named read-outs stand apart in the source and are kept apart here.

As a reminder, the IC50 is the midpoint of a concentration-inhibition curve. For `COc1cc(/C=C/C(=O)O[C@@H]2CC[C@]3(CO3)[C@@H]([C@@]3(C)O[C@@H]3CC=C(C)C)[C@@H]2OC)ccc1Oc1ccc(CO)cc1` [Example 10, O-(4-(4-hydroxymethylphenoxy)-3-methoxycinnamoyl)fumagillol], the IC50 was 42500 nM in the series with L5178Y lymphoma (Mus musculus, 72 h) and 0.711 nM in series [1] (setting [3]). Besides, the “Selectivity Index (L5178Y/CAPE)” value in series [1] is given as 6.00 × 10^4.
As for `CO[C@@H]1[C@H](OC(=O)/C=C/c2ccc(OCCCCO)c(C)c2)CC[C@]2(CO2)[C@H]1[C@@]1(C)O[C@@H]1CC=C(C)C` [Example 22, O-(3-methyl-4-(4-hydroxybutoxy)cinnamoyl)fumagillol], the IC50 with L5178Y lymphoma (Mus musculus, 72 h) was found to be 32500 nM; in series [1] (setting [3]), 0.048 nM. In addition, in series [1], the “Selectivity Index (L5178Y/CAPE)” value was 6.76 × 10^5.
Regarding `CO[C@@H]1[C@H](OC(=O)/C=C/c2ccc(OCCOCCOCCO)cc2)CC[C@]2(CO2)[C@H]1[C@@]1(C)O[C@@H]1CC=C(C)C` [Example 27, O-(4-(2-hydroxyethoxyethoxyethoxy)cinnamoyl)fumagillol], in the series with L5178Y lymphoma (Mus musculus, 72 h), half-maximal inhibition (IC50) required 10500 nM. In series [2], the “change of purity (in words)” value was “hardly showed a change of purity”; the “chemical stability compared to known compounds” value was “more excellent chemical stability than TNP-470, CKD-732 and CKD-731”; the “1 month Other peaks (%)” value is 1.6%; the “1 month Parent peak (%)” value was determined as 98.4%. Besides, in series [2], the “Initial Other peaks (%)” value worked out at 1.6%, the “Initial Parent peak (%)” value was 98.4% and the “change of purity (%)” value turned out to be 0%. Moreover, in the series “Solubility test”, the “The amount of solvent to dissolve 1 g of the compounds (ml), demineralized water” value (from here on “The amount of solvent … demineralized water”) amounted to 120 mL; the “The amount of solvent to dissolve 1 g of the compounds (ml), ethanol” value (“The amount of solvent … (ml), ethanol” below) worked out at 50 mL; the “The amount of solvent to dissolve 1 g of the compounds (ml), methanol” value (shortened to “The amount of solvent to dissolve 1 g … methanol”) amounted to 30 mL. The 50% inhibitory concentration (IC50) in series [1] (setting [3]) is 0.089 nM. Moreover, in series [1], the “Selectivity Index (L5178Y/CAPE)” value is 1.18 × 10^5.
`CO[C@@H]1[C@H](OC(=O)/C=C/c2ccc(OCCCCO)cc2)CC[C@]2(CO2)[C@H]1[C@@]1(C)O[C@@H]1CC=C(C)C` [Example 21, O-(4-(4-hydroxybutoxy)cinnamoyl)fumagillol]: in the series on L5178Y lymphoma (Mus musculus, 72 h), the midpoint of inhibition, the IC50, lay at 25800 nM. Besides, in series [2], the “change of purity (in words)” value is recorded as “hardly showed a change of purity”; the “chemical stability compared to known compounds” value was “more excellent chemical stability than TNP-470, CKD-732 and CKD-731”; the “1 month Other peaks (%)” value was 1.1%; the “1 month Parent peak (%)” value was determined as 98.9%. For the same compound, in series [2], the “Initial Other peaks (%)” value is 1.0%, the “Initial Parent peak (%)” value was 99.0% and the “change of purity (%)” value is given as 0.1%. In addition, in the series “Solubility test”, the “The amount of solvent … demineralized water” value was found to be 150 mL; the “The amount of solvent … (ml), ethanol” value is 97 mL; the “The amount of solvent to dissolve 1 g … methanol” value is 70 mL. In addition, the IC50 in series [1] (setting [3]) was 0.029 nM. For the same compound, the “Selectivity Index (L5178Y/CAPE)” value in series [1] is recorded as 8.90 × 10^5.
`COc1cc(C=CC(=O)OC2CCC3(CO3)C(C3(C)OC3CC=C(C)C)C2OC)cc(OC)c1OC` (centres unmarked) [CKD-731, O-(3,4,5-trimethoxycinnamoyl)fumagillol, reference compound]: in the series with L5178Y lymphoma, the IC50 stood at 58200 nM. Besides, in series [2], the “1 month Other peaks (%)” value came to 2.9%, the “1 month Parent peak (%)” value was determined as 97.1%, the “Initial Other peaks (%)” value is given as 1.1% and the “Initial Parent peak (%)” value came to 98.9%. Further, the “change of purity (%)” value in series [2] was 1.8%. Besides, in the series “Solubility test”, the “The amount of solvent … demineralized water” value stood at 1567 mL; the “The amount of solvent … (ml), ethanol” value was determined as 372 mL; the “The amount of solvent to dissolve 1 g … methanol” value came to 350 mL. For the same compound, the IC50 in series [1] worked out at 0.0044 nM.
With `COc1cc(/C=C/C(=O)O[C@@H]2CC[C@]3(CO3)[C@@H]([C@@]3(C)O[C@@H]3CC=C(C)C)[C@@H]2OC)ccc1OCCOCCO` [Example 14, O-(4-(2-hydroxyethoxyethoxy)-3-methoxycinnamoyl)fumagillol], the IC50 in the series with L5178Y lymphoma (Mus musculus, 72 h) is 50100 nM; in series [1] (setting [3]), 0.26 nM. Further, the “Selectivity Index (L5178Y/CAPE)” value in series [1] is 1.93 × 10^5.
In the same order, the values of `CO[C@@H]1[C@H](OC(=O)/C=C/c2ccc(OCCCO)c(C#N)c2)CC[C@]2(CO2)[C@H]1[C@@]1(C)O[C@@H]1CC=C(C)C` [Example 20, O-(3-cyano-4-(3-hydroxypropoxy)cinnamoyl)fumagillol] are 20500 nM, 0.046 nM and 4.45 × 10^5.
Take `CO[C@@H]1[C@H](OC(=O)/C=C/c2ccc(OCCCO)cc2)CC[C@]2(CO2)[C@H]1[C@@]1(C)O[C@@H]1CC=C(C)C` [Example 19, O-(4-(3-hydroxypropoxy)cinnamoyl)fumagillol]: the IC50 is 24900 nM with L5178Y lymphoma (Mus musculus, 72 h) and 0.017 nM in series [1] (setting [3]). In series [1], the “Selectivity Index (L5178Y/CAPE)” value is listed as 1.46 × 10^6.
For `CO[C@@H]1[C@H](OC(=O)/C=C/c2ccc(OCCO)cc2)CC[C@]2(CO2)[C@H]1[C@@]1(C)O[C@@H]1CC=C(C)C` [Example 1, O-(4-(2-hydroxyethoxy)cinnamoyl)fumagillol], the IC50 in the series on L5178Y lymphoma (Mus musculus, 72 h) stood at 15500 nM. Further, in series [2], the “change of purity (in words)” value was “hardly showed a change of purity”; the “chemical stability compared to known compounds” value is “more excellent chemical stability than TNP-470, CKD-732 and CKD-731”; the “1 month Other peaks (%)” value was 0.6%; the “1 month Parent peak (%)” value is recorded as 99.4%. In series [2], the “Initial Other peaks (%)” value was 0.6%, the “Initial Parent peak (%)” value was 99.4% and the “change of purity (%)” value stood at 0%. In “Solubility test”, the “The amount of solvent … demineralized water” value stood at 135 mL; the “The amount of solvent … (ml), ethanol” value was 55 mL; the “The amount of solvent to dissolve 1 g … methanol” value was 34 mL. For the same compound, in series [1] (setting [3]), the IC50 amounted to 0.0025 nM. For the same compound, in series [1], the “Selectivity Index (L5178Y/CAPE)” value was 6.22 × 10^6. Also, the “effect compared to CKD-731 against CPAE” value in series [1] (relative to CKD-731) was “equivalent or not smaller than twice effect of CKD-731”.
Consider `COc1cc(/C=C/C(=O)O[C@@H]2CC[C@]3(CO3)[C@@H]([C@@]3(C)O[C@@H]3CC=C(C)C)[C@@H]2OC)cc(OC)c1OCCOCCO` [Example 13, O-(3,5-dimethoxy-4-(2-hydroxyethoxyethoxy)cinnamoyl)fumagillol], for which the IC50 with L5178Y lymphoma (Mus musculus, 72 h) turned out to be 34600 nM; in series [1] (setting [3]) it was 0.17 nM. In series [1], the “Selectivity Index (L5178Y/CAPE)” value is 2.03 × 10^5.
As for `COc1ccc(/C=C/C(=O)O[C@@H]2CC[C@]3(CO3)[C@@H]([C@@]3(C)O[C@@H]3CC=C(C)C)[C@@H]2OC)cc1OCCOCCO` [Example 15, O-(3-(2-hydroxyethoxyethoxy)-4-methoxycinnamoyl)fumagillol], the IC50 in the series on L5178Y lymphoma (Mus musculus, 72 h) was determined as 41900 nM; in series [1] (setting [3]), 0.4 nM. In series [1], the “Selectivity Index (L5178Y/CAPE)” value was 1.05 × 10^5.
